Source: publication PMC11243638, “Enhanced Antioxidant, Anti-Aging, Anti-Tyrosinase, and Anti-Inflammatory Properties of Vanda coerulea Griff. Ex Lindl. Protocorm through Elicitations with Chitosan” (Plants, 2024)
Marks after values point to notes of the source that are not given here.

Columns and labels:
[1] = Ferric-reducing antioxidant power (FRAP) assay; assay type: biochemical; settings: mean ± SD, triplicate
Protocol: The capability of the extracts derived from the adult V. coerulea plant and its protocorms to reduce ferric was evaluated through a FRAP assay, which was modified from the methods described by Saeio et al. (2011). Initially, 20 µL of the sample solution was combined with 180 µL of the FRAP solution, prepared by mixing 0.3 M acetate buffer pH 3.6, 10 mM TPTZ in 40 mM HCl solution and 20 mM ferric chloride solution. After incubating the resulting mixture at room temperature for 5 min, the absorbance was measured at 595 nm using a multimode microplate reader (BMG Labtech GmbH, Ortenberg, Germany). The findings were then expressed as the percentage of ferric reducing ability, calculated according to the subsequent equation:Ferric reducing abilities (%) = [(a − b)/a] × 100,(2) where a is the UV absorbance of the combination without a sample, while b is the UV absorbance of the combination with a sample. Various concentrations of each extract were evaluated, and their ferric reducing abilities were plotted against their logarithmic concentrations to generate dose–response curves. […] L-ascorbic acid was used as the positive control. The analysis was performed in triplicate.

[2] = DPPH radical scavenging assay; assay type: biochemical; settings: mean ± SD, triplicate; ND = not determined due to low potency
Protocol: The capability of the extracts derived from the adult V. coerulea plant and its protocorms to scavenge DPPH radicals was evaluated through a DPPH assay, which was modified from the methods described by Brem et al. (2004). Initially, 20 µL of the sample solution was combined with 180 µL of a DPPH solution, prepared by dissolving […] DPPH in DI water. After incubating the resulting mixture in darkness at room temperature for 30 min, the absorbance was measured at 520 nm using a multimode microplate reader (BMG Labtech GmbH, Ortenberg, Germany). […] Various concentrations of each extract were evaluated, and their DPPH inhibitions were plotted against their logarithmic concentrations to generate dose–response curves. […] L-ascorbic acid was used as the positive control. The analysis was performed in triplicate.

[3] = molecular target: T1, porcine pancreatic elastase (Sus scrofa, UniProt P00772); test: Elastase inhibition, spectrophotometric assay; assay type: biochemical; settings: mean ± SD, triplicate; ND = not determined due to low potency
T1 construct: purchased Sigma-Aldrich; host or cells: porcine pancreas
Protocol: The capability of the extracts derived from the adult V. coerulea plant and its protocorms to inhibit elastase activities was evaluated through a spectrophotometric assay, which was modified from the methods described by Thring et al. (2009). Initially, an elastase solution at a concentration of 0.03 units/mL was prepared, comprising elastase sourced from porcine pancreas, along with 0.2 M Tris-HCl buffer pH 8.0. Subsequently, 10 µL of the sample solution was combined with 40 µL of the elastase solution. After the resulting mixture was incubated for 15 min at ambient temperature, 100 µL of 1.6 mM AAAVPN in tris HCl buffer pH 8.0 was introduced to initiate the enzymatic reaction. Immediately, the absorbance was measured kinetically at 410 nm for a duration of 20 min using a multimode microplate reader (BMG Labtech GmbH, Ortenberg, Germany). […] Various concentrations of each extract were evaluated, and their elastase inhibitions were plotted against their logarithmic concentrations to generate dose–response curves. The IC50 values were calculated from the curves using GraphPad Prism (version 8.0.2, GraphPad Software, Boston, MA, USA). […] was used as the positive control. The analysis was performed in triplicate.

[4] = molecular target: collagenase from Clostridium histolyticum; test: Collagenase (MMP-1) inhibition, spectrophotometric assay with FALGPA; assay type: biochemical; settings: mean ± SD, triplicate; ND = not determined due to low potency
Protocol: The capability of the extracts derived from the adult V. coerulea plant and its protocorms to inhibit the MMP-1 activities was evaluated through a spectrophotometric assay, which was modified from the methods described by Thring et al. (2009). Initially, an MMP-1 solution at a concentration of 0.1 units/mL was prepared, comprising MMP-1 sourced from C. histolyticum, along with 400 mM NaCl, 10 mM CaCl2, and 50 mM tricine buffer pH 7.5. Subsequently, 20 µL of the sample solution was combined with 20 µL of the MMP-1 solution and 80 µL of Tricine buffer pH 7.5. […] Immediately, the absorbance was measured kinetically at 340 nm for a duration of 20 min using a multimode microplate reader (BMG Labtech GmbH, Ortenberg, Germany). The findings were then expressed as the percentage of MMP-1 inhibition, calculated according to the subsequent equation:MMP-1 inhibition (%) = [(a − b)/a] × 100,(3) where a is the reaction rate of the combination without a sample, while b is the reaction rate of the combination with a sample. Various concentrations of each extract were evaluated, and their MMP-1 inhibitions were plotted against their logarithmic concentrations to generate dose–response curves. The IC50 values were calculated from the curves using GraphPad Prism (version 8.0.2, GraphPad Software, Boston, MA, USA). […]

[5] = system: chorioallantoic membrane of fertilized hen eggs; test: Hen's egg-chorioallantoic membrane (HET-CAM) irritation test; settings: 1% w/v, positive control
Protocol: The irritation potency of the extracts derived from the adult V. coerulea plant and its protocorms was evaluated through a HET-CAM test, which was previously described by Luepke and Kemper (1986). The fertilized black hen eggs from the Pradu Hang Dam Chiang Mai breed aged between 7 and 9 days were used in the HET-CAM test. As the embryos were in the early stages of development, ethical approval was not required. Typically, hen eggs require 21 days of incubation, and the fertilized eggs aged between 7 to 9 days, which was less than halfway through their incubation cycle, were not considered animals. Prior to the test, the eggshell above the air cell was cracked open, and the inner membrane was moistened with a normal saline solution. […] The duration until the first appearance of each irritation sign was meticulously monitored and recorded in seconds, which enabled the subsequent computation of the irritation score (IS) using the following equation:IS = [(301 − t(h))/300] × 5 + [(301 − t(l))/300] × 7 + [(301 − t(c))/300] × 9,(8) where t(h) is the time of the first appearance of hemorrhage in seconds, t(l) is the time of the first appearance of vascular lysis in seconds, and t(c) is the first appearance of vascular coagulation in seconds. […]

T1 sequence (P00772 27-266): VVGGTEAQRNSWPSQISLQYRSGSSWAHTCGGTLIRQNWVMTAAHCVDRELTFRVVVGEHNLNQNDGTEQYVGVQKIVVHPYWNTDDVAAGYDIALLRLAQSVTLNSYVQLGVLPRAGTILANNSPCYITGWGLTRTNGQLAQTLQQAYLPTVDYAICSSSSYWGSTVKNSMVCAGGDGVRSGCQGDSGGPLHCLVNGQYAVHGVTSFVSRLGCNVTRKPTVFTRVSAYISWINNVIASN

| SMILES | IC50 Ferric Reducing Capacity [1] | IC50 DPPH Inhibition [2] | IC50 Elastase Inhibition [3] | IC50 Collagenase Inhibition [4] | IC50 [3] | Irritation Level [5] | Irritation Score (IS) [5] |
| --- | --- | --- | --- | --- | --- | --- | --- |
| O=C1O[C@H]([C@@H](O)CO)C(O)=C1O [AS, ascorbic acid] | 2.4 ± 0.7 ^a µg/mL | 3.5 ± 2.9 ^a µg/mL |  |  |  |  |  |
| O=C(O[C@@H]1Cc2c(O)cc(O)cc2O[C@@H]1c1cc(O)c(O)c(O)c1)c1cc(O)c(O)c(O)c1 [EGCG, epigallocatechin gallate] |  |  | 0.1 ± 0.0 ^a µg/mL | 16.9 ± 3.2 ^b µg/mL |  |  |  |
| C[C@@H]1O[C@@H](OC[C@H]2O[C@@H](Oc3c(-c4ccc(O)c(O)c4)oc4cc(O)cc(O)c4c3=O)[C@H](O)[C@@H](O)[C@@H]2O)[C@H](O)[C@H](O)[C@H]1O [RT, rutin] | 12.9 ± 2.0 ^b µg/mL | 3.2 ± 2.7 ^a µg/mL |  | 7.6 ± 3.4 ^a µg/mL | 17.2 µM |  |  |
| CCCCCCCCCCCCOS(=O)(=O)[O-].[Na+] [SLS, sodium lauryl sulfate] |  |  |  |  |  | Severe irritation (9.0–21.0 for severe irritation) | 15.13 ± 0.3 |
